In patent publication US9949965B2, “Tricyclic indole Mcl-1 inhibitors and uses thereof” (priority 2014, dated 2018) one finds Ki data, which are given here for 27 molecules.

pKi: −log10 of the molar value. Read-outs that look alike come from different tables or passages of the source.

Assay [1] addresses T1, recombinant Mcl-1 (residues 172-327) (Homo sapiens, UniProt Q07820).
T1 construct: 14 nM recombinant Mcl-1 (residues 172-327) were added to assay buffer
The assay is described as follows: Bak peptide binding assay: fluorescence polarization anisotropy competition (FITC-Bak BH3 peptide). Conditions: 10 nM FITC-Bak, 14 nM Mcl-1, Ki converted from IC50. As to the method: (§1) Bak Peptide Binding Assay
(§2) Compound affinity was measured using a fluorescence polarization anisotropy competition assay. Anisotropy measurements were carried out in 384-well, black, flat-bottom plates (Greiner Bio-one, Monroe, N.C., USA). The assay was run using a fluorescein isothiocyanate-labeled BH3 peptide derived from Bak (FITC-AHx-[…] […] H2) (SEQ ID NO: 1) that was purchased from GenScript (Piscataway, N.J.) at >95% purity and used without further purification. 10 nM FITC-Bak peptide and 14 nM recombinant Mcl-1 (residues 172-327) were added to assay buffer (3 mM dithiothreitol, 50 mM NaCl, 20 mM Tris, pH 7.5). For selectivity assays, 40 nM Bcl-2 (residues 1-207^A96T,G110R, Δ35-91, replaced with Bcl-xL35-50) or 4 nM Bcl-xL (residues 1-209, loop 45-86 deleted) were incubated with 10 nM FITC-Bak in assay buffer.
(§3) Compounds are diluted in DMSO in a 10-point, 3-fold serial dilution scheme. 2.5 uL compound is added to 47.5 uL of assay buffer containing FITC-Bak and protein, for a final DMSO concentration of 5% and a top concentration of 20 uM. […] The plate was mixed and incubated for 90 minutes at room temperature. Anisotropy is measured at excitation wavelength 480 nm and emission wavelength 535 nm using an EnVision Multi-label plate reader (PerkinElmer, Wellesley, Mass., USA). Fluorescence anisotropy is plotted against compound concentration to generate an IC50 (inhibitor concentration at which 50% of bound peptide is displaced) by fitting the data to a 4-parameter logistic model using XLFit software (Guildford, Surrey, UK). IC50 is converted to a binding dissociation constant (Ki value) according to the formula of Wang Z. FEBS Lett (1996) 3, 245: Ki=[I]50/([L]50/Kd+[P]0/Kd+1) where [I]50 is the concentration of the free inhibitor at 50% inhibition, [L]50 is the concentration of the free labeled ligand at 50% inhibition, [P]0 is the concentration of the free protein at 0% inhibition, Kd represents the dissociation constant of the FITC peptide probe.

Assay [2] deals with T2, Bcl-xL (residues 1-209, loop 45-86 deleted) (Homo sapiens, UniProt Q07817, DEL45-86).
T2 construct: Bcl-xL (residues 1-209, loop 45-86 deleted)
The assay is described as follows: biochemical. The format is binding. Conditions: Table 3; 10 nM FITC-Bak, 4 nM Bcl-xL; top concentration 20 uM. As for the experimental part: as §1, §2, §3

Where [3] appears, read: Ki For Inhibition of Mcl-I Protein, Table 2, binned range.

T2 sequence (Q07817 other isoform, or with tags, fused parts or gaps DEL45-86): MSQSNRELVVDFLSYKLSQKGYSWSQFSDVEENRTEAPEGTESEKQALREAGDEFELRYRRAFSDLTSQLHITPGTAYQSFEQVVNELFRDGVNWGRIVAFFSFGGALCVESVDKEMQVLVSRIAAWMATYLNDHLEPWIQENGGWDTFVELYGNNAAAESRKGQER
T1 sequence (Q07820 172-327): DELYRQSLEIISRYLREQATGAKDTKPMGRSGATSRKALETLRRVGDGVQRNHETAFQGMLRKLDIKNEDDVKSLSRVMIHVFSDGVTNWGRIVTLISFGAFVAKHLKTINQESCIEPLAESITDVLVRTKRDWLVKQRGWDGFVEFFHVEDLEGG

As for `O=C(O)c1c(CCOc2cccc3ccccc23)c2cccc3c2n1CCO3` [Example 5, 6-(2-(naphthalen-1-yloxy)ethyl)-2,3-dihydro-[1,4]oxazino[2,3,4-hi]indole-5-carboxylic acid], the pKi in assay [1] (setting [3]) is 5.00 to 6.00.
Same read-out and setting: the same measure for `O=C(O)c1c(CCCOc2cccc3ccccc23)c2cccc3c2n1CCC3` [Example 14, 1-(3-(naphthalen-1-yloxy)propyl)-5,6-dihydro-4H-pyrrolo[3,2,1-ij]quinoline-2-carboxylic acid]: 6.30 to 6.52.
Turning to `Cc1cc(OCCCc2c(C(=O)O)n3c4c(c(Cl)ccc24)OCC3)cc(C)c1Cl` [Example 27, 9-chloro-6-(3-(4-chloro-3,5-dimethylphenoxy)propyl)-2,3-dihydro-[1,4]oxazino[2,3,4-hi]indole-5-carboxylic acid], the pKi in assay [2] was under 4.70; in assay [1] (setting [3]), at least 7.00; in assay [1] (Table 3, read-out: Ki Mcl-1) it was 8.05.
For the molecule `CS(=O)(=O)NC(=O)c1c(CCCOc2cccc3ccccc23)c2cccc3c2n1CCC3` [Example 15, N-(methylsulfonyl)-1-(3-(naphthalen-1-yloxy)propyl)-5,6-dihydro-4H-pyrrolo[3,2,1-ij]quinoline-2-carboxamide], in assay [1] (setting [3]), the pKi was 5.00 to 6.00.
As for `O=C(O)c1c(CCCOc2cccc3ccccc23)c2cccc3c2n1CCCS3` [Example 18, 7-(3-(naphthalen-1-yloxy)propyl)-3,4-dihydro-2H-[1,4]thiazepino[2,3,4-hi]indole-6-carboxylic acid], in assay [1] (setting [3]), the pKi is 6.52 to 7.00.
In the case of `CS(=O)(=O)NC(=O)c1c(CCCOc2cccc3ccccc23)c2cccc3c2n1CCCS3` [Example 19, N-(methylsulfonyl)-7-(3-(naphthalen-1-yloxy)propyl)-3,4-dihydro-2H-[1,4]thiazepino[2,3,4-hi]indole-6-carboxamide], the pKi in assay [1] (setting [3]) was 6.00 to 6.30.
As for `CS(=O)(=O)NC(=O)c1c(CCOc2cccc3ccccc23)c2cccc3c2n1CCS3` [Example 2, N-(methylsulfonyl)-6-(2-(naphthalen-1-yloxy)ethyl)-2,3-dihydro-[1,4]thiazino[2,3,4-hi]indole-5-carboxamide], the pKi in assay [1] (setting [3]) is 5.00 to 6.00.
Same read-out and setting: the same measure for `Cc1cc(OCCCc2c(C(=O)O)n3c4c(cccc24)OCC3)cc(C)c1Cl` [Example 26, 6-(3-(4-chloro-3,5-dimethylphenoxy)propyl)-2,3-dihydro-[1,4]oxazino[2,3,4-hi]indole-5-carboxylic acid]: at least 7.00; for `O=C(O)c1c(CCOc2cccc3ccccc23)c2cccc3c2n1CCC3` [Example 4, 1-(2-(naphthalen-1-yloxy)ethyl)-5,6-dihydro-4H-pyrrolo[3,2,1-ij]quinoline-2-carboxylic acid]: 5.00 to 6.00; for `Cc1cc(OCCCc2c(C(=O)O)n3c4c(cccc24)CCC3)cc(C)c1Cl` [Example 16, 1-(3-(4-chloro-3,5-dimethylphenoxy)propyl)-5,6-dihydro-4H-pyrrolo[3,2,1-ij]quinoline-2-carboxylic acid]: 6.52 to 7.00.
On to `O=C(NS(=O)(=O)c1ccccc1)c1c(CCOc2cccc3ccccc23)c2cccc3c2n1CCO3` [Example 6, 6-(2-(naphthalen-1-yloxy)ethyl)-N-(phenylsulfonyl)-2,3-dihydro-[1,4]oxazino[2,3,4-hi]indole-5-carboxamide], for which, in assay [1] (setting [3]), the pKi is 6.00 to 6.30.
With `CS(=O)(=O)NC(=O)c1c(CCCOc2cccc3ccccc23)c2cccc3c2n1CCS3` [Example 8, N-(methylsulfonyl)-6-(3-(naphthalen-1-yloxy)propyl)-2,3-dihydro-[1,4]thiazino[2,3,4-hi]indole-5-carboxamide], the pKi in assay [1] (setting [3]) was 5.00 to 6.00.
With `Cc1cc(OCCCc2c(C(=O)O)n3c4c(cccc24)SCC3)ccc1Cl` [Example 12, 6-(3-(4-chloro-3-methylphenoxy)propyl)-2,3-dihydro-[1,4]thiazino[2,3,4-hi]indole-5-carboxylic acid], in assay [1] (setting [3]), the pKi was 6.52 to 7.00.
As to `Cc1cc(OCCc2c(C(=O)O)n3c4c(cccc24)SCC3)cc(C)c1Cl` [Example 3, 6-(2-(4-chloro-3,5-dimethylphenoxy)ethyl)-2,3-dihydro-[1,4]thiazino[2,3,4-hi]indole-5-carboxylic acid], in assay [1] (setting [3]), the pKi was 5.00 to 6.00.
Regarding `O=C(O)c1c(CCCOc2cccc3ccccc23)c2cccc3c2n1CCO3` [Example 25, 6-(3-(naphthalen-1-yloxy)propyl)-2,3-dihydro-[1,4]oxazino[2,3,4-hi]indole-5-carboxylic acid], the pKi in assay [1] (setting [3]) was 6.52 to 7.00.
`Cc1cc(OCCCc2c(C(=O)NS(=O)(=O)c3ccccc3)n3c4c(cccc24)SCCC3)cc(C)c1Cl` [Example 24, 7-(3-(4-chloro-3,5-dimethylphenoxy)propyl)-N-(phenylsulfonyl)-3,4-dihydro-2H-[1,4]thiazepino[2,3,4-hi]indole-6-carboxamide]: the pKi in assay [1] (setting [3]) is 6.52 to 7.00.
Regarding `O=C(O)c1c(CCCOc2ccc3c(c2)CCCC3)c2cccc3c2n1CCS3` [Example 11, 6-(3-((5,6,7,8-tetrahydronaphthalen-2-yl)oxy)propyl)-2,3-dihydro-[1,4]thiazino[2,3,4-hi]indole-5-carboxylic acid], the pKi in assay [1] (setting [3]) is 6.30 to 6.52.
`O=C(O)c1c(CCCOc2cccc3ccccc23)c2cccc3c2n1CCS3(=O)=O` [Example 22, 6-(3-(naphthalen-1-yloxy)propyl)-2,3-dihydro-[1,4]thiazino[2,3,4-hi]indole-5-carboxylic acid 1,1-dioxide]: the pKi in assay [1] (setting [3]) is at least 7.00.
Regarding `O=C(O)c1c(CCCOc2cccc3ccccc23)c2cccc3c2n1CCS3` [Example 7, 6-(3-(naphthalen-1-yloxy)propyl)-2,3-dihydro-[1,4]thiazino[2,3,4-hi]indole-5-carboxylic acid], the pKi in assay [2] is under 4.70; in assay [1] (setting [3]), 6.52 to 7.00; in assay [1] (Ki Mcl-1, Table 3), 6.97.
In the case of `O=C(O)c1c(CCCOc2cccc3ccccc23)c2cccc3c2n1CCC[S+]3[O-]` (stereo not drawn) [Example 20, 7-(3-(naphthalen-1-yloxy)propyl)-3,4-dihydro-2H-[1,4]thiazepino[2,3,4-hi]indole-6-carboxylic acid 1-oxide], the pKi in assay [2] was under 4.70; in assay [1] (setting [3]), at least 7.00.
In the case of `O=C(O)c1c(CCCOc2cccc3c2CCCC3)c2cccc3c2n1CCS3` [Example 9, 6-(3-((5,6,7,8-tetrahydronaphthalen-1-yl)oxy)propyl)-2,3-dihydro-[1,4]thiazino[2,3,4-hi]indole-5-carboxylic acid], the pKi in assay [1] (setting [3]) was 6.52 to 7.00.
As for `O=C(O)c1c(CCCOc2cccc3ccccc23)c2cccc3c2n1CCCS3(=O)=O` [Example 21, 7-(3-(naphthalen-1-yloxy)propyl)-3,4-dihydro-2H-[1,4]thiazepino[2,3,4-hi]indole-6-carboxylic acid 1,1-dioxide], the pKi in assay [1] (setting [3]) was at least 7.00.
As to `O=C(O)c1c(CCOc2cccc3ccccc23)c2cccc3c2n1CCS3` [Example 1, 6-(2-(naphthalen-1-yloxy)ethyl)-2,3-dihydro-[1,4]thiazino[2,3,4-hi]indole-5-carboxylic acid], in assay [1] (setting [3]), the negative logarithm of the Ki (pKi) is 5.00 to 6.00.
As for `Cc1cc(OCCCc2c(C(=O)O)n3c4c(cccc24)SCCC3)cc(C)c1Cl` [Example 23, 7-(3-(4-chloro-3,5-dimethylphenoxy)propyl)-3,4-dihydro-2H-[1,4]thiazepino[2,3,4-hi]indole-6-carboxylic acid], the pKi in assay [2] is under 4.70; in assay [1] (setting [3]), at least 7.00; in assay [1] (Table 3, read-out: Ki Mcl-1) it was 7.40.
In the case of `Cc1cc(OCCCc2c(C(=O)NS(=O)(=O)c3ccccc3)n3c4c(cccc24)CCC3)cc(C)c1Cl` [Example 17, 1-(3-(4-chloro-3,5-dimethylphenoxy)propyl)-N-(phenylsulfonyl)-5,6-dihydro-4H-pyrrolo[3,2,1-ij]quinoline-2-carboxamide], the negative logarithm of the Ki (pKi) in assay [1] (setting [3]) is 6.30 to 6.52.
On to `O=C(O)c1c(CCCOc2ccc(Cl)c3ccccc23)c2cccc3c2n1CCS3` [Example 10, 6-(3-((4-chloronaphthalen-1-yl)oxy)propyl)-2,3-dihydro-[1,4]thiazino[2,3,4-hi]indole-5-carboxylic acid], for which the pKi in assay [2] is 5.33; in assay [1] (setting [3]), 6.52 to 7.00; in assay [1] (Table 3, read-out: Ki Mcl-1), 6.70.
For the molecule `Cc1cc(OCCCc2c(C(=O)O)n3c4c(c(Cl)ccc24)CCC3)cc(C)c1Cl` [Example 28, 7-chloro-1-(3-(4-chloro-3,5-dimethylphenoxy)propyl)-5,6-dihydro-4H-pyrrolo[3,2,1-ij]quinoline-2-carboxylic acid], the pKi in assay [1] (setting [3]) is at least 7.00.
